The record followed here is ChEMBL document CHEMBL4507273 (2021).

Assay [1] deals with Phosphatidylinositol 5-phosphate 4-kinase type-2 beta (Homo sapiens) (UniProt P78356). Conditions: Compound concentration 1000.0 nM.
The target in assay [2] is Kappa-type opioid receptor (Homo sapiens, UniProt P41145). Briefly: GPCRScan assay: inhibition of KOR. Set-up: radioligand conc. used [nm] 0.6 – 1.2, parental cells stable HEK.
Assay [3] has as its target Protein-tyrosine kinase 6 (Homo sapiens) (UniProt Q13882). Conditions: Compound concentration 1000.0 nM.
The target of assay [4] is Serine/threonine-protein kinase RIO3 (Homo sapiens) (UniProt O14730). Conditions: Compound concentration 1000.0 nM.
Assay [5] addresses Casein kinase I isoform alpha (Homo sapiens) (UniProt P48729). Conditions: Compound concentration 1000.0 nM.
Assay [6] has as its target Dual specificity tyrosine-phosphorylation-regulated kinase 1B (Homo sapiens) (UniProt Q9Y463). Conditions: Compound concentration 1000.0 nM.
In assay [7] the target is Cyclin-dependent kinase 8 (Homo sapiens) (UniProt P49336). Conditions: Compound concentration 1000.0 nM.
For assay [8], the target named is Dual specificity mitogen-activated protein kinase kinase 4 (Homo sapiens) (UniProt P45985). Conditions: Compound concentration 1000.0 nM.
Assay [9] deals with Tyrosine-protein kinase ABL1 (Homo sapiens), P00519 [T315I]. The note with it: Compound concentration 1000.0 nM.
In assay [10] the target is 5-hydroxytryptamine receptor 2B (Homo sapiens, UniProt P41595). Briefly: GPCRScan assay: inhibition of 5-HT2B. Set-up: radioligand conc. used [nm] 1.0 – 2.0, parental cells stable HEK.
Chain of 5-hydroxytryptamine receptor 2B (P41595 whole entry): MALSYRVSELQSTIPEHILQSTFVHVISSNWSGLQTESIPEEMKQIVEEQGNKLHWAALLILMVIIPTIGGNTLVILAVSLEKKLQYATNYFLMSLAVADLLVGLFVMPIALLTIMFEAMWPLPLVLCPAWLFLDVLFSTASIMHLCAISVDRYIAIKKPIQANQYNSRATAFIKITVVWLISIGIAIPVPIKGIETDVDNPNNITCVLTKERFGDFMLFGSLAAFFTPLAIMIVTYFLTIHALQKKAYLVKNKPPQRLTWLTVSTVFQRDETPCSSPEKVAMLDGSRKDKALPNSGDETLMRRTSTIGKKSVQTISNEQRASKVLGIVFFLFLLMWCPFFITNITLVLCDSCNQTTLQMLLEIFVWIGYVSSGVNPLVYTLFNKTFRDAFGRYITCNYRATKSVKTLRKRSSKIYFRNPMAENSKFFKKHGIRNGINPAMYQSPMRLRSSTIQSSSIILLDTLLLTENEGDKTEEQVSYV
The target in assay [11] is Serine/threonine-protein kinase ULK3 (Homo sapiens) (UniProt Q6PHR2). The note with it: Compound concentration 1000.0 nM.
The target of assay [12] is Protein kinase C theta type (Homo sapiens) (UniProt Q04759). The note with it: Compound concentration 1000.0 nM.
Chain of Protein kinase C theta type (Homo sapiens) (Q04759 whole entry, looked up): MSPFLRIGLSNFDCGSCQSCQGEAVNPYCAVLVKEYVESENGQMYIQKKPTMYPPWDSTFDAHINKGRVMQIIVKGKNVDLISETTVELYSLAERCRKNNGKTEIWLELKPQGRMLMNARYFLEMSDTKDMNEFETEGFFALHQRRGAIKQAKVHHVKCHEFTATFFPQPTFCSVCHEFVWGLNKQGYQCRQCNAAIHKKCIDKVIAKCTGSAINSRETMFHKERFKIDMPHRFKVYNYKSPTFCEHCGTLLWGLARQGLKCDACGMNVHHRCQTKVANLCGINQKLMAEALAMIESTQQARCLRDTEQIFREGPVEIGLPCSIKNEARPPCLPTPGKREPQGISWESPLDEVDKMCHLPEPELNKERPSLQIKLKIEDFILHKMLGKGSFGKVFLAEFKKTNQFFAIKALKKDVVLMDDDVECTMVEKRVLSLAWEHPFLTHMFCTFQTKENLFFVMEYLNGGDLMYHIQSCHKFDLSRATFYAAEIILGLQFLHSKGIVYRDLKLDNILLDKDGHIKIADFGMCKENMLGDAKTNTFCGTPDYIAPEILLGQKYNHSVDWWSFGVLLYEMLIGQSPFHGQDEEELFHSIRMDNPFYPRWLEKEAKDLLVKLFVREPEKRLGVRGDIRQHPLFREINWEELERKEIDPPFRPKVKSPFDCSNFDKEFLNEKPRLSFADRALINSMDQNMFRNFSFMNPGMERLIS
The target in assay [13] is Death-associated protein kinase 1 (Homo sapiens) (UniProt P53355). Conditions: Compound concentration 1000.0 nM.
The target of assay [14] is Sodium-dependent noradrenaline transporter (Homo sapiens, UniProt P23975). Conditions: Compound concentration 10.0 uM.
Assay [15] concerns Mast/stem cell growth factor receptor Kit (Homo sapiens), P10721 [D816V]. The note with it: Compound concentration 1000.0 nM.
Chain of Mast/stem cell growth factor receptor Kit (Homo sapiens), P10721 [D816V] (P10721 whole entry D816V): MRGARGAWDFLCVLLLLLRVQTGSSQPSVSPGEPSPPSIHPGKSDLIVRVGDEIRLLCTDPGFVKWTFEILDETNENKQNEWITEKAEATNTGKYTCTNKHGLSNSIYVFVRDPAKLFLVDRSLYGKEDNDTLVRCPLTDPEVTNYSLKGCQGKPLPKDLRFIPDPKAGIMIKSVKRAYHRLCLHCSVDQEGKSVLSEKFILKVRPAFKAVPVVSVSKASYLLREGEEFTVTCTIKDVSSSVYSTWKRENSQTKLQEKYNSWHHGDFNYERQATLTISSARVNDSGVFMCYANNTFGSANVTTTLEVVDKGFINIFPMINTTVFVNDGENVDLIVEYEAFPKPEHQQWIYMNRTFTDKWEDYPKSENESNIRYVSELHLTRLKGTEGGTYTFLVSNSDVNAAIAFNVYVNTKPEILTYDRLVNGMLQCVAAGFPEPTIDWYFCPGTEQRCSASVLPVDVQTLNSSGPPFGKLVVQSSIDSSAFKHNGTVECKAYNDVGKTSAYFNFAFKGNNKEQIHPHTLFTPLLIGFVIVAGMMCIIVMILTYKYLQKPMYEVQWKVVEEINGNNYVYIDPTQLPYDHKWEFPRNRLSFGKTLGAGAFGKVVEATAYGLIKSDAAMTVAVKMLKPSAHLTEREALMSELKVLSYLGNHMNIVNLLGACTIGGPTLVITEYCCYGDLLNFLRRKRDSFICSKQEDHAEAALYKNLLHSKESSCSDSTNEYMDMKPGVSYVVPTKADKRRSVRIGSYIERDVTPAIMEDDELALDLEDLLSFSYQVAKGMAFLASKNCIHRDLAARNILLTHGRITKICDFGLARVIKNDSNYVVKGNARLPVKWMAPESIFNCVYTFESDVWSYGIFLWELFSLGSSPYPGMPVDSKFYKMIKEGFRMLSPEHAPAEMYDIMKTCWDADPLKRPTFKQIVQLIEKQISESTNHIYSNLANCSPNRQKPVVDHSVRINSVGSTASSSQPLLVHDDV
The subject of assay [16] is Receptor-type tyrosine-protein kinase FLT3 (Homo sapiens), P36888 [UNDEFINED MUTATION]. Conditions: Compound concentration 1000.0 nM.
The subject of assay [17] is Mast/stem cell growth factor receptor Kit (Homo sapiens), P10721 [A829P]. The note with it: Compound concentration 1000.0 nM.
Assay [18] deals with 1-phosphatidylinositol 3-phosphate 5-kinase (Homo sapiens) (UniProt Q9Y2I7). Conditions: Compound concentration 1000.0 nM.
Assay [19] concerns the target Serine/threonine-protein kinase MAK (Homo sapiens) (UniProt P20794). The note with it: Compound concentration 1000.0 nM.
Assay [20] addresses Cyclin-dependent kinase 4 (Homo sapiens) (UniProt P11802). Conditions: Compound concentration 1000.0 nM.
Assay [21] deals with T1, Alpha-1B adrenergic receptor (Homo sapiens, UniProt P35368).
T1 sequence (P35368 whole entry): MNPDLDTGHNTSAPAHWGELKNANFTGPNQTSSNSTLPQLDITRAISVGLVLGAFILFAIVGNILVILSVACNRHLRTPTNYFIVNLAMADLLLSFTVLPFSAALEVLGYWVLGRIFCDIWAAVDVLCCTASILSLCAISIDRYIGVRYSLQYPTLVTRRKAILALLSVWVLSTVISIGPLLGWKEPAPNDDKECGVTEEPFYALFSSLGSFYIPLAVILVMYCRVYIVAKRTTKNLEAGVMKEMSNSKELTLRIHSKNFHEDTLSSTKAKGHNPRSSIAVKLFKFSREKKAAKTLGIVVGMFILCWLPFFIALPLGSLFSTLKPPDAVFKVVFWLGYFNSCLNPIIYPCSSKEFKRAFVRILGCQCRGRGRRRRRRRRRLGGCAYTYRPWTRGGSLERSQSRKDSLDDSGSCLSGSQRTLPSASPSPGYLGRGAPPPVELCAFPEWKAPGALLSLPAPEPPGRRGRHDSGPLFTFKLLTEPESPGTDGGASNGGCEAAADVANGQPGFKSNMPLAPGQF
Briefly: GPCRScan assay: inhibition of Alpha1B. More on the design: radioligand conc. used [nm] 0.3 – 1.0, parental cells stable HEK.

Assay [22] addresses T2, 5-hydroxytryptamine receptor 2C (Homo sapiens) (UniProt P28335).
T2 sequence (whole entry): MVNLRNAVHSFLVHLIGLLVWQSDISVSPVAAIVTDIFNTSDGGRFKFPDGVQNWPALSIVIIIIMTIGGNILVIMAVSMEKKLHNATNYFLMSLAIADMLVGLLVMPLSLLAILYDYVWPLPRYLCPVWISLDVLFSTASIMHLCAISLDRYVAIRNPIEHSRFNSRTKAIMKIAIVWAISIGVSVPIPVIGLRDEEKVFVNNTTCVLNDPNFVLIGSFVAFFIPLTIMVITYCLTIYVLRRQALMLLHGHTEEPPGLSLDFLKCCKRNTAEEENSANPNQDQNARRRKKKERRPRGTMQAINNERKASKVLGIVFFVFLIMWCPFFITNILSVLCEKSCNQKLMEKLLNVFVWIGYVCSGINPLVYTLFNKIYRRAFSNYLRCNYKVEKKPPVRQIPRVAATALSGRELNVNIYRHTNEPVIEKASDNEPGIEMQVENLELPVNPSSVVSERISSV
Conditions: Compound concentration 10.0 uM.

The species entered for another assay is Rattus norvegicus. Conditions: Compound concentration 10.0 uM.
In assay [23] the target is Cyclin-dependent kinase 1/cyclin B (Homo sapiens) (UniProt P06493+P14635+Q8WWL7+O95067). Briefly: CDK1/cyclinB(h) Eurofins Kinase panel. In kind it is protein-complex assay. The note with it: Compound concentration 1.0 uM.
For assay [24], the target named is T3, Alpha-2A adrenergic receptor (Homo sapiens) (UniProt P08913).
T3 sequence (whole entry): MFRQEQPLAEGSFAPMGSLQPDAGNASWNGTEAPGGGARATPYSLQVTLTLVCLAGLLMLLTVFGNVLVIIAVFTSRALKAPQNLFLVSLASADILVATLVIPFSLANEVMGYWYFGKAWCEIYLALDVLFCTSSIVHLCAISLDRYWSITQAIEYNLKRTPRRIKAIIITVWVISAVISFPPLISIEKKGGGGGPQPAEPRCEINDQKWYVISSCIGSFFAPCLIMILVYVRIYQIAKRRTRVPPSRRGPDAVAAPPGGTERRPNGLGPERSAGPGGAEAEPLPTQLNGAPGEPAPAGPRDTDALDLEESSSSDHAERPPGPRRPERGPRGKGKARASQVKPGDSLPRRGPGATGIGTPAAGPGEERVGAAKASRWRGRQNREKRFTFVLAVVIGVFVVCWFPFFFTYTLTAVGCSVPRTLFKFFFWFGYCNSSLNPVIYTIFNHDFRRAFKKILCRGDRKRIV
The note with it: Compound concentration 10.0 uM.

Chain of Cyclin-dependent kinase 4 (Homo sapiens) (P11802 whole entry): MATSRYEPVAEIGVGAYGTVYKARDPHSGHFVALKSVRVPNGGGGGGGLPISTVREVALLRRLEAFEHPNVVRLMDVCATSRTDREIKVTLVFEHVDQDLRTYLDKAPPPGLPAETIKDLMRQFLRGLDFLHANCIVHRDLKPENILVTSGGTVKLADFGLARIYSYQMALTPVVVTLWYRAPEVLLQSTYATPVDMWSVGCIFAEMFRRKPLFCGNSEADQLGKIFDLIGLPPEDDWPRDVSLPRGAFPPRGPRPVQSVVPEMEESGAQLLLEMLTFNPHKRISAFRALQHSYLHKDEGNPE
Chain of Casein kinase I isoform alpha (Homo sapiens) (P48729 2-337 limits assumed): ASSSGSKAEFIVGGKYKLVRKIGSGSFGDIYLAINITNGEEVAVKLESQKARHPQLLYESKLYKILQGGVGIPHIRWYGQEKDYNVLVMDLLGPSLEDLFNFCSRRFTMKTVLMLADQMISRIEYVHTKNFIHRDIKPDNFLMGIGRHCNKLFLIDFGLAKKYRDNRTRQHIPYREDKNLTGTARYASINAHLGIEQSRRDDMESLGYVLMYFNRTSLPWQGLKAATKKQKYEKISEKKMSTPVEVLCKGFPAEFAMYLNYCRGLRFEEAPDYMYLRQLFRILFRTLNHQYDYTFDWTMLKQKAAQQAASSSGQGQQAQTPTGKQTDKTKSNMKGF
Chain of Dual specificity tyrosine-phosphorylation-regulated kinase 1B (Homo sapiens) (Q9Y463 whole entry, looked up): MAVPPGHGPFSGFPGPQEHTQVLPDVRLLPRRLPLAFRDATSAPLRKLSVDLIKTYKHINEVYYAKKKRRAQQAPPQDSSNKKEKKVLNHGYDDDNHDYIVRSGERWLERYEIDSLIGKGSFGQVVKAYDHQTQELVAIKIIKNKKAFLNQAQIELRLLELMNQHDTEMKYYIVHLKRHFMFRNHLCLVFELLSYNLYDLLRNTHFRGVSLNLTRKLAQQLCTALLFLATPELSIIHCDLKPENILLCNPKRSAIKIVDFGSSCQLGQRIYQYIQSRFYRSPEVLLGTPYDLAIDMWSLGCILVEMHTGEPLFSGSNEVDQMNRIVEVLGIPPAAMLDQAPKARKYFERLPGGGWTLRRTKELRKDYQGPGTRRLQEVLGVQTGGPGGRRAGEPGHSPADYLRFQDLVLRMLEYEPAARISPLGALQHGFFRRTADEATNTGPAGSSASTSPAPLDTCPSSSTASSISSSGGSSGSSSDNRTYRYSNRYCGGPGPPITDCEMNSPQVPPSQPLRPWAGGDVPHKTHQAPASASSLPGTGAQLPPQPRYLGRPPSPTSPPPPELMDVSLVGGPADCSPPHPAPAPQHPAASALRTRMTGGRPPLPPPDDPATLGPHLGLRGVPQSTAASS
Chain of Phosphatidylinositol 5-phosphate 4-kinase type-2 beta (Homo sapiens) (P78356 whole entry): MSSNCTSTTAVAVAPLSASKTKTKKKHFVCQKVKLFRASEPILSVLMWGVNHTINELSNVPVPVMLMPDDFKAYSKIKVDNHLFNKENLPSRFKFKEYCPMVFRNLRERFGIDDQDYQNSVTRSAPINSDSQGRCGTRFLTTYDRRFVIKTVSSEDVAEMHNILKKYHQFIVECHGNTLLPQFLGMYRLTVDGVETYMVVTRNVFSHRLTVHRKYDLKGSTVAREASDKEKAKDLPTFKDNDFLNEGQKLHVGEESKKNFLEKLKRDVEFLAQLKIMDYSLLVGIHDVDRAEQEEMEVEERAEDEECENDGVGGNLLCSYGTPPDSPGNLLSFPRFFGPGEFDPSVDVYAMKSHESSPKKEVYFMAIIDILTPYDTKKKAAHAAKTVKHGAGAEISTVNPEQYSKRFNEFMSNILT
Chain of Mast/stem cell growth factor receptor Kit (Homo sapiens), P10721 [A829P] (P10721 whole entry A829P): as the sequence (P10721 whole entry D816V) above, with V816D, A829P counted along it

In general, inhibition refers to the drop in the measured response relative to a control, in per cent. With `CNCc1ccccc1-c1csc([C@H](C)Nc2nc(C)nc3cc(OC)c(OC)cc23)c1` [BAY-294], the residual activity was 100% in assay [1]; 100% in [3]; 100% in assay [4]; 74% in assay [5]; 55% in [6]; 84% in [7]. For the same compound, the residual activity in [8] is 100%; in assay [9], 95%; in assay [11], 88%; in assay [12], 100%; in assay [13], 100%; in [15], 100%. For the same compound, the residual activity in [16] was 99%; in assay [17] it was 100%; in [18] it was 100%; in assay [19] it was 97%; in assay [20], 100%. In addition, the Ki in [2] (read-out: Ki) was 841 nM; in assay [2] (read-out: pKi (converted)), 822 nM; in assay [10] it was 74.6 nM; in assay [21] (read-out: Ki), 95.3 nM; in assay [21] (read-out: pKi (converted)), 86.1 nM. For the same compound, the inhibition in assay [14] is 69.3%.

As to `CNCc1ccccc1-c1csc([C@@H](C)Nc2nc(C)nc3cc(OC)c(OC)cc23)c1` [BAY-293], the residual activity in assay [1] is 100%; in assay [3] it was 100%; in [4] it was 94%; in [5], 73%; in assay [6] it was 64%; in [7], 68%. The residual activity in assay [8] is 86%; in assay [9] it was 100%; in assay [11], 78%; in assay [12] it was 100%; in [13] it was 99%; in assay [15] it was 81%. For the same compound, the residual activity is 89% in [16]; 87% in [17]; 100% in [18]; 100% in assay [19]; 100% in assay [20]. The inhibition in [22] is 104%; in the assay listed under Rattus norvegicus, 13.1%; in assay [14], 84%; in assay [24], 99%. The figures for the Ki in [10] and in assay [21] (read-out: Ki) were 623 nM and 265 nM, respectively. Further, the % residual kinase activity in assay [23] is 87%.
